# According to US12685739B2, “Compositions and methods for treating lung injury” (University of Maryland, Baltimore, priority 2020, dated 2026):
# Experiments:
# [1] = system: rat model of ALI induced by IV administration of oleic acid (OA); settings: 75 mg/kg IP 1 hour before OA; cited from earlier work
# [2] = system: murine model of ALI induced by intranasal ovalbumin (OVA); settings: 20 mg/kg, mice pre-sensitized to OVA; cited from earlier work
# [3] = system: rat model of VILI with MV alone; experiment: rat model of VILI with mechanical ventilation alone; settings: 10 μg/kg IP at start of MV, MV 4 hours (10 mL/kg), assessed at 24 hours, vs vehicle
# [4] = system: rat model of ARDS plus MV; experiment: rat model of ARDS (intratracheal HCl) plus mechanical ventilation; assay type: in vivo
# Description: In other cases, a rat model of ARDS was used in which acute lung injury is induced by acid instillation, followed by mechanical ventilation. […] In a second experiment, a conventional rat model of ARDS plus MV was used. Rats were anesthetized and intubated. […] After inducing ALI, rats received MV for 4 hours, as above, except that VT=8 mL/kg. Rats were euthanized at 24 hours. […] MV (VT=8 mL/kg) was continued for 4 hours, following which rats were extubated, recovered from anesthesia and returned to their home cages. Lung function was evaluated at 24 hours. Rats were re-anesthetized. […] Rats were then re-intubated for MV. […] In a subgroup of rats, after completing the 24-hour lung function assessments, rats were euthanized, and the lungs were […] using 5 mL normal saline to obtain bronchioalveolar lavage fluid (BALF). BALF was analyzed for protein.
# [5] = system: mouse model of ventilator-induced lung injury (VILI); settings: 50 mg/kg, VT=15 mL/kg; cited from earlier work
# [6] = system: human neutrophils; experiment: MRP8/14 exocytosis from activated human neutrophils, ELISA; assay type: cell-based; design: dose or concentration left out as unconfirmed; settings: co-incubation with glibenclamide, n=6
# Description: FIG. 9. […] Exocytosis of MRP8/14 from human neutrophils using ELISA was studied. […] Co-immunoprecipitation experiments were performed to determine whether SUR1 and MRP8/14 physically co-associate.
# [7] = system: SUR1-regulated channels; settings: in vitro, low-dose; read-out: EC50, inhibition of SUR1-regulated channels; cited from earlier work
# [8] = system: LPS-induced mouse model of ARDS; experiment: LPS-induced mouse model of ARDS; assay type: in vivo; settings: 10 μg IP 2 hours after LPS and again 5 hours later, 24 hours after LPS, vs vehicle
# Description: At 24 hours after LPS induction, bronchioalveolar fluid (BALF) was analyzed for neutrophil infiltration, and lung tissues were analyzed for cytokine expression. […].
# At 24 hours after LPS induction, bronchioalveolar fluid (BALF) was analyzed for neutrophil infiltration, and lung tissues were analyzed for S100A8/MRP8, which is released by neutrophils. As previously, LPS instilled into the lungs caused a massive invasion of neutrophils into the BALF, as well as dramatic accumulation of the S100A8/MRP8. […]
# [9] = 50 μg/kg IP at onset of MV and at 6 hours, 24 hours, vs VEH
compound,measurement,setting,value
COc1ccc(Cl)cc1C(=O)NCCc1ccc(S(=O)(=O)NC(=O)NC2CCCCC2)cc1 [glibenclamide],levels of myeloperoxidase (MPO) and malondialdehyde (MDA),[1],reduced levels
same,"pulmonary interstitial edema, infiltration of neutrophils and mononuclear cells",[1],significantly alleviated
same,"Th2 cytokines IL-5, IL-4 and IL-13 in BALF",[2],significantly reduced
same,pulmonary edema (wet weight/dry weight),[3],significantly reduced
same,pulmonary edema (wet weight/dry weight),[3]; listed as GLIB,significantly decreased pulmonary edema
same,pulmonary edema (wet weight/dry weight),[3]; listed as Glibenclamide,significantly decreased pulmonary edema
same,"dynamic lung compliance, pressure-volume curve",[4]; [9],the shift to the right was less pronounced
same,"hemoglobin (Hgb) in lung tissues, immunoblot",[4]; [9],less hemorrhagic exudate
same,"hemorrhagic exudates, gross appearance of lungs",[4]; [9],reduced hemorrhagic exudates
same,protein in BALF,[4]; [9],the increase was less pronounced
same,"oxygen saturation (sO2), pulse oximetry","[4]; 50 μg/kg IP at onset of MV and at 6 hours, at 24 hours, n=3",88±4.4%
same,"cellular infiltrates, H&E-stained lung sections","[4]; ARDS with MV, vs VEH",reduced cellular infiltrates
same,"neutrophil invasion, immunohistochemistry for MPO","[4]; lung tissues, vs VEH",less pronounced
same,quantification of MPO by immunohistochemistry and immunoblot,"[4]; lung tissues, vs VEH",significant reduction
same,NOS2 expression in lung tissues,[4]; vs VEH,attenuated
same,TNF expression in lung tissues,[4]; vs VEH,attenuated
same,"BALF total protein, neutrophils, IL-1β, IL-6 and KC levels",[5],reduced
same,pulmonary edema,[5],reduced pulmonary edema
same,MRP8/14 exocytosis (release into extracellular media),[6]; neutrophils stimulated with LPS,significantly reduced
same,MRP8/14 exocytosis (release into extracellular media),[6]; neutrophils stimulated with PMA,significantly reduced
same,EC50,[7],48 nM
same,IL-6 in lung tissues,[8],significant reduction
same,MCP-1 in lung tissues,[8],significant reduction
same,S100A8/MRP8 in lung tissues,[8],significant reduction
same,neutrophils in BALF,[8],significant reduction
same,IL-6 in lung tissues,[8]; listed as Glibenclamide,significant reductions
same,MCP-1 in lung tissues,[8]; listed as Glibenclamide,significant reductions
